Reference: patent US9738634B2, “Heterocyclic amide compound and herbicide” (SYNGENTA PARTICIPATIONS AG, priority 2013, dated 2017)

Key:
Type in all cases: in vivo
[1] = system: common wind-grass; experiment: Test Example 3: weedkilling efficacy through soil treatment; J: common wind-grass; conditions: soil treatment, treatment dosage 80 g/ha
From the text: (§1) Weedkilling Efficacy Test Through Soil Treatment
(§2) Sterilized diluvial soil was introduced into 21 cm long, 13 cm wide, 7 cm deep plastic boxes, and seeds of crabgrass, green foxtail, barnyard grass, wild oat, black-grass, Italian ryegrass, common wind-grass, Indian mallow, redroot pigweed, fig-leafed goosefoot, chickweed, catchweed, birds-eye speedwell, corn, soybean, rice, wheat, beet and rapeseed were each spot-sown, and covered with about 1.5 cm of soil. Next, emulsions of compounds of the present invention prepared according to compounding example 2 were diluted with water to give the specified dosages, and applied uniformly onto the soil surface with a small sprayer. The plants were grown by placing the plastic boxes in a greenhouse at 25 to 30° C., and 3 weeks after the pesticide treatment the effect on each type of plant was investigated on the basis of the assessment criteria of test example 1.
(§3) A: barnyard grass, B: bulrush, C: oval-leafed pondweed, D: crabgrass, E: green foxtail, F: barnyard grass, G: wild oat, H: black-grass, I: Italian ryegrass, J: common wind-grass, K: Indian mallow, L: redroot pigweed, M: fig-leafed goosefoot, N: chickweed, O: catchweed, p: birds-eye speedwell, a: transplanted rice, b: directly sown rice, c: corn, d: soybean, e: wheat, f: beet, g: rapeseed
(§4) Further, pesticide dosage (g/ha) indicates the concentration regulated such that treatment was with only the stated number of grams (g), when calculated per hectare (ha).

[2] = system: black-grass; experiment: Test Example 3: weedkilling efficacy through soil treatment; H: black-grass; conditions: soil treatment
Procedure, shortened: (§5)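 Crop and weed responses were judged three weeks after a uniform surface spray of the water-diluted emulsion at the given g/ha rate. Seeds sat beneath about 1.5 cm of sterilized diluvial soil, and boxes stood in a greenhouse at 25 to 30° C.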

[3] = system: Italian ryegrass; experiment: Test Example 3: weedkilling efficacy through soil treatment; I: Italian ryegrass; conditions: soil treatment
Procedure, shortened: as §5

[4] = system: wheat; experiment: Test Example 3: soil treatment, effect on crop; e: wheat; conditions: soil treatment
Procedure, shortened: as §5

[5] = system: rapeseed; experiment: Test Example 3: soil treatment, effect on crop; g: rapeseed; conditions: soil treatment, treatment dosage 80 g/ha
From the text: as §1, §2, §3, §4

[6] = system: oval-leafed pondweed; experiment: Test Example 1: weedkilling efficacy, preemergent weed treatment in the submerged state; C: oval-leafed pondweed; conditions: treatment dosage 252 g/ha
Procedure, shortened: (§6)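 Pots of alluvial soil were flooded to a 4 cm depth. Mixed weed seeds were sown and 2.5 leaf-stage rice seedlings transplanted. On sowing day, water-diluted emulsion was applied to the water surface (dose in g/ha). After 3 weeks at 25–30 °C, effects were rated.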

[7] = system: soybean; experiment: Test Example 3: soil treatment, effect on crop; d: soybean; conditions: soil treatment, treatment dosage 315 g/ha
Procedure, shortened: as §5

[8] = system: crabgrass; experiment: Test Example 3: weedkilling efficacy through soil treatment; D: crabgrass; conditions: soil treatment, treatment dosage 315 g/ha
Procedure, shortened: as §5

[9] = system: bulrush; experiment: Test Example 2: weedkilling efficacy, growth period weed treatment in the submerged state; B: bulrush; conditions: treatment dosage 252 g/ha
Procedure, shortened: (§7)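 Weeds treated at the 1-2 leaf stage by application of diluted emulsion onto floodwater (4 cm depth, alluvial soil) at specified g/ha. Grown in greenhouse at 25 to 30° C; herbicidal effect rated three weeks after treatment.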

[10] = system: fig-leafed goosefoot; experiment: Test Example 3: weedkilling efficacy through soil treatment; M: fig-leafed goosefoot; conditions: soil treatment, treatment dosage 315 g/ha
Procedure, shortened: as §5

[11] = system: Indian mallow; experiment: Test Example 3: weedkilling efficacy through soil treatment; K: Indian mallow; conditions: soil treatment, treatment dosage 315 g/ha
Procedure, shortened: as §5

[12] = system: transplanted rice; experiment: Test Example 1: preemergent weed treatment in the submerged state, effect on crop; a: transplanted rice; conditions: treatment dosage 252 g/ha
Procedure, shortened: as §6

[13] = system: barnyard grass; experiment: Test Example 1: weedkilling efficacy, preemergent weed treatment in the submerged state; A: barnyard grass; conditions: treatment dosage 252 g/ha
Procedure, shortened: as §6

[14] = system: beet; experiment: Test Example 3: soil treatment, effect on crop; f: beet; conditions: soil treatment, treatment dosage 315 g/ha
Procedure, shortened: as §5

[15] = system: barnyard grass; experiment: Test Example 2: weedkilling efficacy, growth period weed treatment in the submerged state; A: barnyard grass; conditions: treatment dosage 252 g/ha
Procedure, shortened: as §7

[16] = system: oval-leafed pondweed; experiment: Test Example 2: weedkilling efficacy, growth period weed treatment in the submerged state; C: oval-leafed pondweed; conditions: treatment dosage 252 g/ha
Procedure, shortened: as §7

[17] = system: catchweed; experiment: Test Example 3: weedkilling efficacy through soil treatment; O: catchweed; conditions: soil treatment, treatment dosage 315 g/ha
From the text: as §1, §2, §3, §4

[18] = system: green foxtail; experiment: Test Example 3: weedkilling efficacy through soil treatment; E: green foxtail; conditions: soil treatment, treatment dosage 315 g/ha
Procedure, shortened: as §5

[19] = system: directly sown rice; experiment: Test Example 3: soil treatment, effect on crop; b: directly sown rice; conditions: soil treatment, treatment dosage 315 g/ha
Procedure, shortened: as §5

[20] = system: wild oat; experiment: Test Example 3: weedkilling efficacy through soil treatment; G: wild oat; conditions: soil treatment, treatment dosage 315 g/ha
Procedure, shortened: as §5

[21] = system: bulrush; experiment: Test Example 1: weedkilling efficacy, preemergent weed treatment in the submerged state; B: bulrush; conditions: treatment dosage 252 g/ha
Procedure, shortened: as §6

[22] = system: chickweed; experiment: Test Example 3: weedkilling efficacy through soil treatment; N: chickweed; conditions: soil treatment, treatment dosage 315 g/ha
Procedure, shortened: as §5

[23] = system: corn; experiment: Test Example 3: soil treatment, effect on crop; c: corn; conditions: soil treatment, treatment dosage 315 g/ha
Procedure, shortened: as §5

[24] = system: redroot pigweed; experiment: Test Example 3: weedkilling efficacy through soil treatment; L: redroot pigweed; conditions: soil treatment, treatment dosage 315 g/ha
Procedure, shortened: as §5

[25] = system: birds-eye speedwell; experiment: Test Example 3: weedkilling efficacy through soil treatment; p: birds-eye speedwell; conditions: soil treatment, treatment dosage 315 g/ha
Procedure, shortened: as §5

`CC(C)(C(=O)Nc1cc(Br)ccn1)N1COCN(c2ccccc2)C1=O` [A-2-08] was tested, and the “J: common wind-grass, weedkilling efficacy grade” value (shortened to “J: common wind-grass”) [1] was 5 (weed kill ratio 90% or more, (practically complete withering)), the “H: black-grass, weedkilling efficacy grade” value (“H: black-grass” for short) ([2]; treatment dosage 80 g/ha) was 5 (weed kill ratio 90% or more, (practically complete withering)) and the “I: Italian ryegrass, weedkilling efficacy grade” value (“I: Italian ryegrass” for short) ([3]; treatment dosage 80 g/ha) was 5 (weed kill ratio 90% or more, (practically complete withering)). For the same molecule, the “e: wheat, effect on crop grade” value ([4]; treatment dosage 80 g/ha) was 0 (weed kill ratio 5% or less (practically no effect)) and the “g: rapeseed, effect on crop grade” value [5] was 0 (weed kill ratio 5% or less (practically no effect)).

For `CC(C)(C(=O)Nc1cc(Cl)nc(Cl)n1)N1COCN(c2ccccc2)C1=O` [A-1-21], the “J: common wind-grass” value [1] was 5 (weed kill ratio 90% or more, (practically complete withering)), the “H: black-grass” value ([2]; treatment dosage 80 g/ha) was 4 (weed kill ratio 70% or more, less than 90%) and the “I: Italian ryegrass” value ([3]; treatment dosage 80 g/ha) was 4 (weed kill ratio 70% or more, less than 90%). The “e: wheat, effect on crop grade” value ([4]; treatment dosage 80 g/ha) was 0 (weed kill ratio 5% or less (practically no effect)) and the “g: rapeseed, effect on crop grade” value [5] was 0 (weed kill ratio 5% or less (practically no effect)).

With `CC(C)(C(=O)Nc1cccc(I)n1)N1COCN(c2ccccc2)C1=O` [A-2-11] the “C: oval-leafed pondweed, weed kill grade” value [6] was 5 (weed kill ratio 90% or more, (practically complete withering)), the “d: soybean, effect on crop grade” value [7] was 0 (weed kill ratio 5% or less (practically no effect)) and the “H: black-grass” value ([2]; treatment dosage 315 g/ha) was 5 (weed kill ratio 90% or more, (practically complete withering)). For the same molecule, the “D: crabgrass, weedkilling efficacy grade” value [8] was 5 (weed kill ratio 90% or more, (practically complete withering)), the “I: Italian ryegrass” value ([3]; treatment dosage 315 g/ha) was 5 (weed kill ratio 90% or more, (practically complete withering)) and the “B (bulrush) weedkilling efficacy grade” value [9] was 5 (weed kill ratio 90% or more, (practically complete withering)). For the same molecule, the “M: fig-leafed goosefoot, weedkilling efficacy grade” value [10] was 3 (weed kill ratio 40% or more, less than 70%), the “K: Indian mallow, weedkilling efficacy grade” value [11] was 0 (weed kill ratio 5% or less (practically no effect)) and the “a: transplanted rice, effect on crop grade” value [12] was 0 (weed kill ratio 5% or less (practically no effect)). For the same molecule, the “A: barnyard grass, weed kill grade” value [13] was 5 (weed kill ratio 90% or more, (practically complete withering)), the “e: wheat, effect on crop grade” value ([4]; treatment dosage 315 g/ha) was 1 (weed kill ratio 5% or more, less than 20%) and the “f: beet, effect on crop grade” value [14] was 2 (weed kill ratio 20% or more, less than 40%). For the same molecule, the “A (barnyard grass) weedkilling efficacy grade” value [15] was 4 (weed kill ratio 70% or more, less than 90%), the “C (oval-leafed pondweed) weedkilling efficacy grade” value [16] was 3 (weed kill ratio 40% or more, less than 70%) and the “O: catchweed, weedkilling efficacy grade” value [17] was 2 (weed kill ratio 20% or more, less than 40%). For the same molecule, the “E: green foxtail, weedkilling efficacy grade” value [18] was 5 (weed kill ratio 90% or more, (practically complete withering)), the “b: directly sown rice, effect on crop grade” value [19] was 3 (weed kill ratio 40% or more, less than 70%) and the “G: wild oat, weedkilling efficacy grade” value [20] was 2 (weed kill ratio 20% or more, less than 40%). The “B: bulrush, weed kill grade” value [21] was 5 (weed kill ratio 90% or more, (practically complete withering)), the “N: chickweed, weedkilling efficacy grade” value [22] was 4 (weed kill ratio 70% or more, less than 90%) and the “c: corn, effect on crop grade” value [23] was 0 (weed kill ratio 5% or less (practically no effect)). The “L: redroot pigweed, weedkilling efficacy grade” value [24] was 0 (weed kill ratio 5% or less (practically no effect)) and the “P: birds-eye speedwell, weedkilling efficacy grade” value [25] was 4 (weed kill ratio 70% or more, less than 90%).

For `CC(C)(C(=O)Nc1cc(C(F)F)cc(Cl)n1)N1COCN(c2ccccc2)C1=O` [A-2-27], the “J: common wind-grass” value [1] was 5 (weed kill ratio 90% or more, (practically complete withering)), the “H: black-grass” value ([2]; treatment dosage 80 g/ha) was 5 (weed kill ratio 90% or more, (practically complete withering)) and the “I: Italian ryegrass” value ([3]; treatment dosage 80 g/ha) was 5 (weed kill ratio 90% or more, (practically complete withering)). The “e: wheat, effect on crop grade” value ([4]; treatment dosage 80 g/ha) was 1 (weed kill ratio 5% or more, less than 20%) and the “g: rapeseed, effect on crop grade” value [5] was 2 (weed kill ratio 20% or more, less than 40%).

With `CC(C)(C(=O)Nc1nc(C(F)(F)F)cs1)N1COCN(c2ccccc2)C1=O` [A-1-06] the “J: common wind-grass” value [1] was 5 (weed kill ratio 90% or more, (practically complete withering)), the “H: black-grass” value ([2]; treatment dosage 80 g/ha) was 5 (weed kill ratio 90% or more, (practically complete withering)) and the “I: Italian ryegrass” value ([3]; treatment dosage 80 g/ha) was 5 (weed kill ratio 90% or more, (practically complete withering)). For the same molecule, the “g: rapeseed, effect on crop grade” value [5] was 4 (weed kill ratio 70% or more, less than 90%).
